Source: PMC5019375, “Characterization of Potent SMAC Mimetics that Sensitize Cancer Cells to TNF Family-Induced Apoptosis” (PLoS ONE, 2016)
Where “and” joins values, the source holds several entries; their conditions need not be identical. Identical values can stand only once.

Legend:
[1] = test system: PC-3 prostate cancer cells; experiment: Cytotoxicity assay, sensitization to TNF (CellTiter-Glo); type: cell-based, human; set-up: key to TNF EC50: IN: EC50 too weak to be determined; details: for TNF EC50 / EC50: 10 nM TNF, 24 h
Protocol: (§1) Cellular cytotoxicity experiments were conducted in white 96-well flat bottom plates (Greiner Bio-One #655074). PC-3 prostate cancer cells were seeded into microtiter wells in 90 μL RPMI medium with 10% fetal calf serum and antibiotics at 5,000 cells per well, and then incubated overnight at 37°C with 5% CO2/95% air. The next day, compounds diluted into the same culture medium and added in 10 μL aliquots to achieve various final concentrations, maintaining a uniform total volume per well. Either TNF (at 10 nM final) or LT-α (at ~90 pM final) resuspended in 10 μL of RPMI with 10% fetal calf serum and antibiotics was added to wells or an equal volume of medium was applied for the control well. The plates were then further incubated for 24 h. Subsequently, cell viability was assessed by the addition of 25 μL per well of Cell-Titer-Glo reagent (Promega, Inc). Plates were read using a Luminoskan Ascent luminometer.
(§2) The cellular activity of cIAP1 and cIAP2 inhibitors was evaluated through experiments where cytotoxicity of a human prostate tumor cell line (PC-3) was assessed in the presence or absence of cytokines TNF and LT-α. The experimental approach we used was to provide TNF or LT-α at a fixed concentration, which by itself was non-cytotoxic, then titrate SMAC mimetics into the cell cultures. […] The compound series described in this work has been tested against a broad range of cell lines (data not shown and [23]) and single agent toxicity was only observed for SKOV3 ovarian tumor cells. This agrees with the findings of Varfolomeev, Vince and Lalaoui, respectively.

cIAP2-BIR2 = cIAP2-BIR2 (Homo sapiens, UniProt Q13489); experiment: FP competition assay, displacement of SMAC-rhodamine
cIAP2-BIR2, sequence (Q13489 129-246): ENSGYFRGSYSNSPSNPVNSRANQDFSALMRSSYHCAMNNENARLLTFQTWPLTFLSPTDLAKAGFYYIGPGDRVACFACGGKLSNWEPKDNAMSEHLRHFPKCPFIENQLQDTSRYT
Protocol: (§4) Solutions for assessing SMAC-rhodamine binding to various BIR domains were empirically optimized. […] For cIAP1-BIR3, the assay buffer was 25 mM Hepes [pH 7.5] containing 40 mM β-glycerol phosphate, 1 mM TCEP, and 0.005% Tween 20, typically with 20 nM SMAC-rhodamine. For cIAP1-BIR2, cIAP2-BIR2 and cIAP2-BIR3, assays were performed in 25 mM Hepes [pH 7.5] containing 1 mM TCEP and 0.005% Tween 20, typically with 20 nM SMAC-rhodamine.
(§5) For cIAP1-BIR2, assays were conducted using 25 mM Hepes [pH 7.5] containing 1 mM TCEP, 0.005% Tween 20, ~1 μM cIAP1-BIR2, and 20 nM SMAC-rhodamine. For cIAP1-BIR3, assays were performed using the same buffered solution, except 40 mM β-glycerol phosphate was added and the cIAP1-BIR3 concentration was reduced to 50 nM. For cIAP2-BIR2, assays included a buffer containing 25 mM Hepes [pH 7.5] containing 1 mM TCEP, 0.005% Tween 20, 1 μM cIAP2-BIR2, and 20 nM SMAC-rhodamine. […] IC50 values were determined with a nonlinear fit using Prism software. Ki values were determined from the IC50 values using an online program developed by Nikolovska-Coleska et al. [26].

cIAP1-BIR3 = cIAP1-BIR3 (Homo sapiens, UniProt Q13490); experiment: as above
cIAP1-BIR3, sequence (Q13490 257-356): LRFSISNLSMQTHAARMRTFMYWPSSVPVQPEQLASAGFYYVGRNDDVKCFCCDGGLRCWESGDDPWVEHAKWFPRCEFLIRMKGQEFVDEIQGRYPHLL
Protocol: as §4, §5

[2] = test system: PC-3 prostate cancer cells; experiment: Cytotoxicity assay, sensitization to LT-α (CellTiter-Glo); type: cell-based, human; set-up: key to LT-α EC50: IN: EC50 too weak to be determined; details: for LT-α EC50 / EC50: 24 h
Protocol: as §1, §2

cIAP2-BIR3 = cIAP2-BIR3 (Homo sapiens, UniProt Q13489); experiment: FP competition assay, displacement of SMAC-rhodamine
cIAP2-BIR3, sequence (Q13489 243-333): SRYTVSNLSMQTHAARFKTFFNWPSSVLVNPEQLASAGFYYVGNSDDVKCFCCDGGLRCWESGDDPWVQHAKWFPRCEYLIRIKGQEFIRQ
Protocol: as §4, §5

cIAP1-BIR2 = cIAP1-BIR2 (Homo sapiens, UniProt Q13490); experiment: as above
cIAP1-BIR2, sequence (Q13490 144-260): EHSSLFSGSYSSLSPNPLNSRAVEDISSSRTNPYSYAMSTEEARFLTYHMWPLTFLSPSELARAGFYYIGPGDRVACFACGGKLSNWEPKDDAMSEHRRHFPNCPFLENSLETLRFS
Protocol: as §4, §5

[3] = target: T1, myc-RIP1 binding to GST-cIAP1-BIR3 (Homo sapiens, UniProt Q13490); experiment: RIP1 binding, GST pull-down from HEK293T lysates; details: various concentrations, overnight, 4°C
T1 construct: purified GST-fusion proteins (GST-cIAP1-BIR3 or GST-cIAP2-BIR3) were added; made in house; host or cells: GST fusion: bacteria (as for the other recombinant proteins); myc-RIP1: transfected HEK293T cell lysate
T1 sequence (Q13490 257-356 limits assumed): as the sequence (Q13490 257-356) above
Protocol: (§3) To assess the impact of compounds on cIAP1 and cIAP2 binding to RIP1, 700,000 HEK293T cells were seeded into 100 mm cell-culture plates and transfected the next day with 6 μg of plasmid DNA, myc-RIP1 in pRK5 vector. […] Lysates from 6 plates were pooled and divided into equal 300 μL aliquots, into which 7 μg of purified GST-fusion proteins (GST-cIAP1-BIR3 or GST-cIAP2-BIR3) were added in the presence of various concentrations of SMAC mimetic compounds. The tubes were rocked overnight at 4°C, and the next day 20 μL of glutathione-Sepharose beads (GE Healthcare) was added to each tube and the tubes were rocked for an additional 2 h at 4°C. The GST-fusion proteins were recovered by centrifugation at 2,300 g for 30 sec, then washed 3-times in NP-40 lysis buffer. Finally, 20 μL of 2X Laemmli buffer was added and the samples were boiled, then fractionated by SDS-PAGE, followed by immunoblotting using anti-myc antibody (Roche) for detection of myc-RIP1 and anti-GST antibody (BD Biosciences, La Jolla, CA) for detection of GST-fusion proteins.

[4] = target: T2, myc-RIP1 binding to GST-cIAP2-BIR3 (Homo sapiens, UniProt Q13489); experiment: RIP1 binding, GST pull-down from HEK293T lysates; details: various concentrations, overnight, 4°C
T2 construct: purified GST-fusion proteins (GST-cIAP1-BIR3 or GST-cIAP2-BIR3) were added; made in house; host or cells: GST fusion: bacteria (as for the other recombinant proteins); myc-RIP1: transfected HEK293T cell lysate
T2 sequence (Q13489 243-333 limits assumed): as the sequence (Q13489 243-333) above
Protocol: as §3

[5] = target: T3, cIAP1 protein in MDA-MB-231 cells (Homo sapiens, UniProt Q13490); experiment: Immunoblotting of cIAP1 protein levels in cells; type: cell-based; details: 5 μM, 6 h, immunoblot
T3 construct: MDA-MB-231 cells contain abundant levels of cIAP1 protein but little cIAP2 protein; endogenous in cells; host or cells: MDA-MB-231
T3 sequence (Q13490 whole entry): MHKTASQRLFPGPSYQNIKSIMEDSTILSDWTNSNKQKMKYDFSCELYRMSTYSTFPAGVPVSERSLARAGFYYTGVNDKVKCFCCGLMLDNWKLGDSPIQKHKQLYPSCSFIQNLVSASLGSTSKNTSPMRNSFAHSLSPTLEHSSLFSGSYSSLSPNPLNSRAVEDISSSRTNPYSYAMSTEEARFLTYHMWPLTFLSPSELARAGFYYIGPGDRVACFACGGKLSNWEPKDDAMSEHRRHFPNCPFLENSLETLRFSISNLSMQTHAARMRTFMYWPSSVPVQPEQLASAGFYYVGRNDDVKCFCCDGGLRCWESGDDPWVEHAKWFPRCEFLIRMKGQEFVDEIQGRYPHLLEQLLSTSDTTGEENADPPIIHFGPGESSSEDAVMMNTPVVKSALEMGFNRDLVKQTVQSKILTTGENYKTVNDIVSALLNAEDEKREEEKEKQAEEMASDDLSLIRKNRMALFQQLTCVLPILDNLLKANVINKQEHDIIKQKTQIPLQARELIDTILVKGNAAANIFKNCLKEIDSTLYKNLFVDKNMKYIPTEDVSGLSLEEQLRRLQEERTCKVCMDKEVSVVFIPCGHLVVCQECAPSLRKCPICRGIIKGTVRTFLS
Protocol: To assess the impact of compounds on cIAP1 protein levels in cells, 40,000 MDA-MB-231 cells were cultured in complete medium (RPMI with 10% fetal calf serum and antibiotics) overnight at 37°C in 5% CO2/95% air. The following day compounds at 5 μM (or an equivalent volume of diluent control) were added. After 6 h, cells were recovered by centrifugation, lysed in SDS-sample buffer, and equivolume aliquots of lysates were analyzed by SDS-PAGE/Immunoblotting using antibodies specific for human/mouse cIAP (pan) Mab (clone 315301; R&D Systems #MAB3400) and β-actin (Sigma-Aldrich #A5441) by an enhanced chemiluminescence (ECL) method, essentially as described.

[6] = cIAP1 BIR3 Ki, 25 mM Hepes pH 7.5, 1 mM TCEP, 0.005% Tween 20, 20 nM SMAC-rhodamine, 40 mM β-glycerol phosphate, ~50 nM protein, Ki calculated from IC50
[7] = PC-3 cells, ~90 pM LT-α, cell viability
[8] = PC-3 cells, cell viability, read-out: TNF EC50
[9] = PC-3 cells, ~90 pM LT-α, cell viability, read-out: LT-α EC50

| SMILES | Ki (cIAP2-BIR2) | Ki (cIAP1-BIR3; [6]) | Ki (cIAP2-BIR3) | Ki (cIAP1-BIR2) | also measured |
| --- | --- | --- | --- | --- | --- |
| CN[C@@H](C)C(=O)N[C@H](C(=O)N[C@@H](C)C(=O)NNc1ccccc1)C(C)C [compound 23] | 13.6 µM | 6.13 µM and 6.1 µM | 8.29 µM | 7.39 µM | TNF EC50 ([1]; PC-3 cells, cell viability): IN^b; cytotoxicity against PC-3 cells with TNF ([1]; in words): essentially no cytotoxicity; LT-α EC50 [2, 7]: IN^b; cytotoxicity against PC-3 cells with LT-α ([2]; in words): essentially no cytotoxicity |
| CN[C@@H](C)C(=O)N[C@H](C(=O)N1CCC[C@@H]1C(=O)N[C@H]1CCOc2ccccc21)C(C)C [compound 37, reference compound] | – | 0.02 µM | – | – | EC50 [1, 8]: 0.03 µM; EC50 [2, 9]: 0.01 µM; inhibition of myc-RIP1 binding to GST-cIAP1-BIR3 [3]: inhibited binding; inhibition of myc-RIP1 binding to GST-cIAP2-BIR3 [4]: inhibited binding |
| CN[C@@H](C)C(=O)N[C@H](C(=O)N[C@@H](C)C(=O)Nc1cccc2ccccc12)C(C)C [compound 15] | 17.5 µM | 3.23 µM and 3.2 µM | 5.1 µM | 8.96 µM | EC50 ([1]; representative curves, CellTiter-Glo, read-out: EC50, sensitization of PC-3 tumor cells to TNF (Fig 5a)): 5.3 µM |
| CN[C@@H](C)C(=O)N[C@@H](C(=O)N1CCC[C@@H]1C(=O)NNc1cccc(F)c1)C1CCCCC1 [compound 40, reference compound] | – | > 92.4 µM | – | – | effect on cIAP1 protein levels in cells [5]: did not; TNF EC50 ([1]; PC-3 cells, cell viability): IN^b; LT-α EC50 [2, 7]: IN^b; inhibition of myc-RIP1 binding to GST-cIAP1-BIR3 [3]: did not; inhibition of myc-RIP1 binding to GST-cIAP2-BIR3 [4]: did not |
| CN[C@@H](C)C(=O)N[C@H](C(=O)N1CCC[C@H]1C(=O)Nc1ccc2ccccc2n1)C(C)C [compound 39] | – | 0.08 µM | – | – | EC50 [1, 8]: 0.07 µM; EC50 [2, 9]: 0.03 µM |
| CN[C@@H](C)C(=O)N[C@H](C(=O)N1CCC[C@H]1C(=O)NNc1ccccc1)C(C)C [compound 22] | 5.43 µM | 0.26 µM | 0.56 µM | 3.62 µM | – |
| CN[C@@H](C)C(=O)N[C@H](C(=O)N1CCC[C@H]1C(=O)N[C@@H]1CCCc2ccccc21)C(C)C [compound 1] | 2.34 µM | 0.02 µM | 0.04 ± 0.01 µM | 0.84 µM | Ki (cIAP1-BIR3; Ki against cIAP1-BIR3, FP assay): 0.024 ± 0.001 µM; binding affinity for cIAP1 and cIAP2 compared with XIAP (cIAP1-BIR3; estimated by relative Ki values, cIAP1 and cIAP2 vs XIAP): higher affinity binding to cIAP1 and cIAP2 than XIAP; EC50 ([2]; Homo sapiens, representative curves, 90 pM LT-α, CellTiter-Glo, read-out: EC50, sensitization of PC-3 tumor cells to LT-α (Fig 5b)): 0.019 µM |
| CN[C@@H](C)C(=O)N[C@H](C(=O)N[C@@H](CCCNC(N)=N[N+](=O)[O-])C(=O)N[C@@H]1CCCc2ccccc21)C(C)C [compound 9] | 2.62 µM | 0.05 µM | 0.07 µM | 0.81 µM | – |
| CN[C@@H](C)C(=O)N[C@H](C(=O)N1CSC[C@@H]1C(=O)NC1CCCc2ccccc21)C(C)C (some centres unmarked) [compound 38, reference compound] | – | 0.03 µM | – | – | effect on cIAP1 protein levels in cells [5]: caused reductions of cIAP1 protein levels in cells; EC50 [1, 8]: 0.06 µM; EC50 [2, 9]: 0.02 µM; inhibition of myc-RIP1 binding to GST-cIAP1-BIR3 [3]: inhibited binding; inhibition of myc-RIP1 binding to GST-cIAP2-BIR3 [4]: inhibited binding |
| CN[C@@H](C)C(=O)N[C@H](C(=O)N[C@@H](CCC(N)=O)C(=O)N[C@@H]1CCCc2ccccc21)C(C)C [compound 11] | 5.5 µM | 0.72 µM | 0.55 µM | 3.25 µM | – |
| CN[C@@H](C)C(=O)N[C@H](C(=O)N[C@@H](CCCN=C(N)N)C(=O)NNc1ccccc1)C(C)C [compound 28] | 15.4 µM | 1.97 µM | 1.42 µM | 4.39 µM | – |
| CN[C@@H](C)C(=O)N[C@H](C(=O)N[C@@H](CO)C(=O)N[C@@H]1CCCc2ccccc21)C(C)C [compound 14] | 6.81 µM | 0.23 µM | 0.3 µM | 3.09 µM | – |
| CN[C@@H](C)C(=O)N[C@H](C(=O)N[C@@H](CCCN)C(=O)N[C@@H]1CCCc2ccccc21)C(C)C [compound 13] | 3.75 µM | 0.09 µM | 0.07 µM | 1.47 µM | – |
| CN[C@@H](C)C(=O)N[C@H](C(=O)N[C@@H](CCCN)C(=O)NNc1ccccc1)C(C)C [compound 32] | 10.9 µM | 4.01 µM | 2.17 µM | 3.82 µM | – |
